Measurements taken from patent publication US10111822B2, “External dermal composition for anti-ageing and method for producing the same” (Hayashibara Co., Ltd., priority 2012, dated 2018).

What was measured:
glutathione = assay: Production level of glutathione in NHEK cells; format: cell-based, human; conditions: 24 h, control = 100%
Protocol: Continuously-cultivated NHEK cells in EpiLife medium were collected, resuspended in EpiLife medium, inoculated to culture plates with 10 cm in diameter in an amount of 1×10^6 cells/10 mL/plate, and cultured for 24 hours. Thereafter, each culture supernatant was removed by sucking, and any of the test solutions was added to the remaining cells in a volume of 10 mL/plate, followed by culturing the cells for another 24 hours. As a control, cells were added with only D-MEM medium in an amount of 10 mL/plate and cultured for 24 hours. Each culture supernatant was removed from each plate, then ice-chilled Dulbecco's PBS (−), commercialized by Nissui Pharmaceutical Co., Ltd., Tokyo, Japan, was added to rinse the remaining cells, which were then collected with a scraper. Glutathione was quantified on “Glutathione Assay Kit”, a product name of glutathione assay kit commercialzied by BioVision, Inc., San Francisco, USA. In this experiment, the control and test solutions in respective three plates were assayed for glutathione production level for each plate and averaged for obtaining the glutathione production level of each solution. A 5% v/v CO2 incubator was used for culturing NHEK cells in any case. Relative values of test samples were determined with the proviso that the production levels of reduced glutathione and total glutathione in NHEK cells that had been cultured with only EpiLife medium were respectively regarded as 100%, and the results are in Table 5.

cornified envelope (CE) = assay: Production of cornified envelope (CE) in NHEK cells; format: cell-based, human; conditions: 5 days, control 0.63 ± 0.07
Protocol: The following experiment was conducted to examine the effect of ascorbic acid 2-glucoside on the production of CE in a keratinous layer. As a model for typical normal human epidermal cells, normal human epidermal keratinocytes from neonatal foreskin, commercialized by Kurabo Industries Ltd., Osaka, Japan, and abbreviated as “NHEK cells”, hereinafter, were suspended in EpiLife medium (pH 7.4), commercialized by Invitrogen Corporation, Calif., USA, and called “EpiLife medium”, hereinafter, inoculated to 12-well microplates at a cell density of 1×10^5 cells/well, and cultured under the conditions of 37° C. and 5% v/v CO2 overnight. Thereafter, “AA2G”, a product name of a particulate composition containing anhydrous crystalline ascorbic acid 2-glucoside, commercialized by Hayashibara Co., Ltd., Okayama, Japan, was added to each well to give a final concentration of 0.5 or 1 mM, or, as a positive control, CaCl2 was added to each well to give a final concentration of 1 mM; and the cells in each well were cultured at 37° C. for five days while replacing the medium in each well with a fresh preparation of EpiLife medium having the above-identified concentration of ascorbic acid 2-glucoside or CaCl2. Assay for intracellular CE content was carried out in accordance with Tatsuya Hasegawa et al., “Lipids”, Vol. 46, pp. 529 to 535, 2011. After completion of the culture, the culture supernatant in each well was immediately removed, followed by detaching and extracting the cells adhered to the wall of each well by means of pipetting with phosphate buffered saline (PBS, pH 7.4) containing 2% w/v sodium dodecyl sulfate (SDS), and collecting insoluble fractions by centrifugation at 15,000 rpm for 10 min. […] The measured values were regarded as CE production levels. […]

occludin = assay: TJ-related protein occludin in NHEK cells (Western); format: cell-based, human; conditions: 3 days, CaCl2 positive control = 100%, no addition 63%
Protocol: The following experiment was conducted to examine the effect of ascorbic acid 2-glucoside on the production of TJ-related proteins that constitute cell-cell adhesion structures by focusing on occludin and ZO-1 that are focused on as TJ-related proteins known to exist in a granular layer of epidermis: As a model for typical normal human epidermal cells, NHEK cells were suspended in EpiLife medium (pH 7.4); inoculated to 12-well microplates at a cell density of 1×10^5 cells/well; cultured overnight under the conditions of 37° C. and 5% v/v CO2; and further cultured for three days under the conditions of 37° C. and 5% v/v CO2 after adding either CaCl2 as a positive control to each well to give a final concentration of 0.5 mM, or “AA2G”, a product name of a particulate composition containing anhydrous crystalline ascorbic acid 2-glucoside, commercialized by Hayashibara Co., Ltd., Okayama, Japan, to give a final concentration of 0.5 or 1 mM. […] A sample of 20 μg protein for each lane per each cell extract in respective wells was applied to sodium dodecyl sulfate polyacrylamide gel electrophoresis (SDS-PAGE) with 10% w/v SDS containing DTT, followed by assaying the concentration of occludin or ZO-1 in each cell extract with “Luminate Western HRP Substrates”, a product name of a premixed, ready-to-use chemiluminescent detection reagent using an internal standard “α-Tubulin”, commercialized by Merck KGaA, Darmstadt, Germany, wherein there were used “F-11”, a product name of an anti-occludin mouse monoclonal antibody, commercialized by Santa Cruz Biotechnology, Inc., Texas, USA, or “ZO1-1A12”, a product name of a ZO-1 mouse monoclonal antibody, commercialized by Invitrogen Corporation, Calif., USA, was used as a first antibody; and “PO447”, a product name of a horseradish peroxidase (HRPO) labeled anti-mouse IgG, commercialized by DAKO Japan Inc., Tokyo, Japan, or “PO448”, a product name of an HRPO-labeled anti-rabbit IgG, commercialized by DAKO Japan Inc., Tokyo, Japan, as a secondary antibody. […]

[1] = pH of aqueous solutions of compositions; format: physicochemical; conditions: 2 g (d.s.b.) dissolved in 20 mL refined water; ratio by mass (anhydrous crystalline sodium salt):(anhydrous crystal)

**Q.** For O=C1O[C@H]([C@@H](O)CO)C(O)=C1O[C@H]1O[C@H](CO)[C@@H](O)[C@H](O)[C@H]1O [ascorbic acid 2-glucoside, 2-O-α-D-glucosyl-L-ascorbic acid], which Reduced glutathione (glutathione; 0.5 mM) is on record?
**A.** The Reduced glutathione was 106%.

**Q.** What about the Total glutathione (glutathione; 0.5 mM) of the same compound?
**A.** The Total glutathione was 106%.

**Q.** What about the Reduced glutathione (glutathione; 1.0 mM) of the same compound?
**A.** The Reduced glutathione was 111%.

**Q.** And the Total glutathione (glutathione; 1.0 mM)?
**A.** The Total glutathione was 111%.

**Q.** And the Reduced glutathione (glutathione; 2.0 mM)?
**A.** Its Reduced glutathione is 117%.

**Q.** And the Total glutathione (glutathione; 2.0 mM)?
**A.** The Total glutathione was 117%.

**Q.** What about the “OD310nm Value (CE Production level)” value (cornified envelope (CE); 0.5 mM) of the same compound?
**A.** The value was 0.78 ± 0.05.

**Q.** What about the “OD310nm Value (CE Production level)” value (cornified envelope (CE); 1 mM) of the same compound?
**A.** The value was 1.04 ± 0.11.

**Q.** What about the “Occludin concentration in cell extract” value (occludin; 0.5 mM) of the same compound?
**A.** The value was 78%.

**Q.** And the “Occludin concentration in cell extract” value (occludin; 1 mM)?
**A.** Its value is 85%.

**Q.** What about the pH [1] of the same compound?
**A.** The pH was 1.7.
